Results published in US9283222B2 (priority 2006, dated 2016).

molecular target: Recombinant Human Poly(ADP-Ribose) Polymerase (PARP), PARP-1 (Homo sapiens (Human), UniProt P09874); conditions: read-out: PARP-1 (Ki)
Sequence (P09874 whole entry): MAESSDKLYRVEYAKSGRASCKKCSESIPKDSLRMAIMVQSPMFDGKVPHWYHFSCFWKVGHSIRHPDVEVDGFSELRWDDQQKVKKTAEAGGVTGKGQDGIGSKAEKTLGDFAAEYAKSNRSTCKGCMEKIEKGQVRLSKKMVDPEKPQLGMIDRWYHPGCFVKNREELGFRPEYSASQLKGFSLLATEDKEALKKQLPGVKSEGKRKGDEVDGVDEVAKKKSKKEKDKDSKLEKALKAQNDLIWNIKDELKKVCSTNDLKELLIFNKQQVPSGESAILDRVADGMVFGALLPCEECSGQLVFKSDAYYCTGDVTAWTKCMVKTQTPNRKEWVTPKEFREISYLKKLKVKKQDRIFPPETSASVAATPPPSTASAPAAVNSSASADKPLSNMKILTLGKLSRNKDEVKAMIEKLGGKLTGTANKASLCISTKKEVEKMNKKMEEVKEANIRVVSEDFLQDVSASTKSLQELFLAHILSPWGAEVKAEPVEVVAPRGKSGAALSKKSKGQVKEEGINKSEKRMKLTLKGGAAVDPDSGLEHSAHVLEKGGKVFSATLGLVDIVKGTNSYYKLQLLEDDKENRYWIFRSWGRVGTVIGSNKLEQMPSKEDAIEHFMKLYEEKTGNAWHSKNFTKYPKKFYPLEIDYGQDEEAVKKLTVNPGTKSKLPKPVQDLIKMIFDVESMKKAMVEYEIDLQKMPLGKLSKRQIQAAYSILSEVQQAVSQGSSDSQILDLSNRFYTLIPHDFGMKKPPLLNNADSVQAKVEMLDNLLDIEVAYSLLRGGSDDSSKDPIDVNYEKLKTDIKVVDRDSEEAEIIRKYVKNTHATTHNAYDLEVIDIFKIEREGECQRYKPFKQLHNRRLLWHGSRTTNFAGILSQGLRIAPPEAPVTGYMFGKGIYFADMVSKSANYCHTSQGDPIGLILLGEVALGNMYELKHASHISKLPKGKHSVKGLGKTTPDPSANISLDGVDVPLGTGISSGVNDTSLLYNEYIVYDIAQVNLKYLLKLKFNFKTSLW

Ki [nM]	SMILES
2	O=C(c1cc(Cc2n[nH]c(=O)c3c2NCCC3)ccc1F)N1CCN(C(=O)N2CCOCC2)CC1 [Example 473, 8-(4-fluoro-3-((4-(morpholin-4-ylcarbonyl)piperazin-1-yl)carbonyl)benzyl)-2,3,4,6-tetrahydropyrido(2,3-d)pyridazin-5(1H)-one]

same assay, conditions: read-out: PARP-1 (Ki); Table 1; text calls the values EC50s

SMILES	Ki [nM]
CC(=O)CCCC(=O)Nc1cc(Cc2n[nH]c(=O)c3c2CCCC3)ccc1F [Example 455, N-(2-fluoro-5-((4-oxo-3,4,5,6,7,8-hexahydrophthalazin-1-yl)methyl)phenyl)-5-oxohexanamide]	1.3
COCCC(=O)Nc1cc(Cc2n[nH]c(=O)c3c2CCCC3)ccc1F [Example 456, N-(2-fluoro-5-((4-oxo-3,4,5,6,7,8-hexahydrophthalazin-1-yl)methyl)phenyl)-3-methoxypropanamide]	5
O=C(CCCC(=O)Nc1cc(Cc2n[nH]c(=O)c3c2CCCC3)ccc1F)Nc1ccccc1 [Example 457, N-(2-fluoro-5-((4-oxo-3,4,5,6,7,8-hexahydrophthalazin-1-yl)methyl)phenyl)-N′-phenylpentanediamide]	0.7
Nc1cc(Cc2n[nH]c(=O)c3cccnc23)ccc1F [Example 463, 8-(3-amino-4-fluorobenzyl)pyrido(2,3-d)pyridazin-5(6H)-one]	1880
O=C(O)c1cc(Cc2n[nH]c(=O)c3c2NCCC3)ccc1F [Example 468, 2-fluoro-5-((5-oxo-1,2,3,4,5,6-hexahydropyrido(2,3-d)pyridazin-8-yl)methyl)benzoic acid]	249
O=C(CCOc1ccccc1)Nc1cc(Cc2n[nH]c(=O)c3c2NCCC3)ccc1F [Example 478, N-(2-fluoro-5-((5-oxo-1,2,3,4,5,6-hexahydropyrido(2,3-d)pyridazin-8-yl)methyl)phenyl)-3-phenoxypropanamide]	2
O=C(COc1ccc(OCc2ccccc2)cc1)Nc1cc(Cc2n[nH]c(=O)c3c2NCCC3)ccc1F [Example 481, 2-(4-(benzyloxy)phenoxy)-N-(2-fluoro-5-((5-oxo-1,2,3,4,5,6-hexahydropyrido(2,3-d)pyridazin-8-yl)methyl)phenyl)acetamide]	12
CCOCCN1CCN(C(=O)c2cc(Cc3n[nH]c(=O)c4c3NCCC4)ccc2F)CC1 [Example 485, 8-(3-((4-(2-ethoxyethyl)piperazin-1-yl)carbonyl)-4-fluorobenzyl)-2,3,4,6-tetrahydropyrido(2,3-d)pyridazin-5(1H)-one]	14
O=C(NCCN1CCCCC1)c1cc(Cc2n[nH]c(=O)c3c2NCCC3)ccc1F [Example 486, 2-fluoro-5-((5-oxo-1,2,3,4,5,6-hexahydropyrido(2,3-d)pyridazin-8-yl)methyl)-N-(2-piperidin-1-ylethyl)benzamide]	15
O=C(c1cc(Cc2n[nH]c(=O)c3c2CCCC3)ccc1F)N1CCN(c2ncccn2)CC1 [Example 490, 4-(4-fluoro-3-((4-pyrimidin-2-ylpiperazin-1-yl)carbonyl)benzyl)-5,6,7,8-tetrahydrophthalazin-1(2H)-one]	0.7
CN(C)C(=O)N1CCN(C(=O)c2cc(Cc3n[nH]c(=O)c4c3CCCC4)ccc2F)CC1 [Example 494, 4-{2-fluoro-5-[(4-oxo-3,4,5,6,7,8-hexahydrophthalazin-1-yl)methyl]benzoyl}-N,N-dimethylpiperazine-1-carboxamide]	0.9
O=C(c1cc(Cc2n[nH]c(=O)c3c2CCCC3)ccc1F)N1CCN(c2cnccn2)CC1 [Example 496, 4-{4-fluoro-3-[(4-pyrazin-2-ylpiperazin-1-yl)carbonyl]benzyl}-5,6,7,8-tetrahydrophthalazin-1(2H)-one]	0.8
O=C(c1cc(Cc2n[nH]c(=O)c3c2CCCC3)ccc1F)N1CCN(c2ccncc2)CC1 [Example 497, 4-{4-fluoro-3-[(4-pyridin-4-ylpiperazin-1-yl)carbonyl]benzyl}-5,6,7,8-tetrahydrophthalazin-1(2H)-one]	1.1
Cc1cncc(N2CCN(C(=O)c3cc(Cc4n[nH]c(=O)c5c4CCCC5)ccc3F)CC2)n1 [Example 499, 4-(4-fluoro-3-{[4-(6-methylpyrazin-2-yl)piperazin-1-yl]carbonyl}benzyl)-5,6,7,8-tetrahydrophthalazin-1(2H)-one]	1.6
NC(=O)C1CCCN(C(=O)c2cc(Cc3n[nH]c(=O)c4c3CCCC4)ccc2F)C1 (stereo not drawn) [Example 500, 1-{2-fluoro-5-[(4-oxo-3,4,5,6,7,8-hexahydrophthalazin-1-yl)methyl]benzoyl}piperidine-3-carboxamide]	3
CN(C)CCN1CCN(C(=O)c2cc(Cc3n[nH]c(=O)c4c3CCCC4)ccc2F)CC1 [Example 501, 4-[3-({4-[2-(dimethylamino)ethyl]piperazin-1-yl}carbonyl)-4-fluorobenzyl]-5,6,7,8-tetrahydrophthalazin-1(2H)-one]	4
CN1CCCN(C(=O)c2cc(Cc3n[nH]c(=O)c4c3CCCC4)ccc2F)CC1 [Example 502, 4-{4-fluoro-3-[(4-methyl-1,4-diazepan-1-yl)carbonyl]benzyl}-5,6,7,8-tetrahydrophthalazin-1(2H)-one]	1.5
O=C(c1cc(Cc2n[nH]c(=O)c3c2CCCC3)ccc1F)N1CCC(O)CC1 [Example 503, 4-{4-fluoro-3-[(4-hydroxypiperidin-1-yl)carbonyl]benzyl}-5,6,7,8-tetrahydrophthalazin-1(2H)-one]	1.3
CN(C)CCN(C)C(=O)c1cc(Cc2n[nH]c(=O)c3c2CCCC3)ccc1F [Example 504, N-[2-(dimethylamino)ethyl]-2-fluoro-N-methyl-5-[(4-oxo-3,4,5,6,7,8-hexahydrophthalazin-1-yl)methyl]benzamide]	3.6
CCN(CC)C(=O)C1CCCN(C(=O)c2cc(Cc3n[nH]c(=O)c4c3CCCC4)ccc2F)C1 (stereo not drawn) [Example 505, N,N-diethyl-1-{2-fluoro-5-[(4-oxo-3,4,5,6,7,8-hexahydrophthalazin-1-yl)methyl]benzoyl}piperidine-3-carboxamide]	6
CN(C)CCN(C)C(=O)c1cc(Cc2n[nH]c(=O)c3c2NCCC3)ccc1F [Example 513, N-[2-(dimethylamino)ethyl]-2-fluoro-N-methyl-5-[(5-oxo-1,2,3,4,5,6-hexahydropyrido[2,3-d]pyridazin-8-yl)methyl]benzamide]	6
O=C(c1cc(Cc2n[nH]c(=O)c3c2CCCC3)ccc1F)N1CCN(Cc2cccc(Cl)c2)CC1 [Example 514, 4-(3-{[4-(3-chlorobenzyl)piperazin-1-yl]carbonyl}-4-fluorobenzyl)-5,6,7,8-tetrahydrophthalazin-1(2H)-one]	9
O=C(c1cc(Cc2n[nH]c(=O)c3c2CCCC3)ccc1F)N1CCN(Cc2ccccc2Cl)CC1 [Example 518, 4-(3-{[4-(2-chlorobenzyl)piperazin-1-yl]carbonyl}-4-fluorobenzyl)-5,6,7,8-tetrahydrophthalazin-1(2H)-one]	10
CC(=O)N1CCN(C(=O)c2cc(Cc3n[nH]c(=O)c4c3CCCC4)ccc2F)CC1 [Example 520, 4-{3-[(4-acetylpiperazin-1-yl)carbonyl]-4-fluorobenzyl}-5,6,7,8-tetrahydrophthalazin-1(2H)-one]	0.1

Now from value to compound:

Ki [nM]	SMILES
3.5	COC(=O)c1cc(Cc2n[nH]c(=O)c3c2NCCC3)ccc1F [Example 465, methyl 2-fluoro-5-((5-oxo-1,2,3,4,5,6-hexahydropyrido(2,3-d)pyridazin-8-yl)methyl)benzoate]
51	O=C(NC1CCC1)c1cc(Cc2n[nH]c(=O)c3c2NCCC3)ccc1F [Example 471, N-cyclobutyl-2-fluoro-5-((5-oxo-1,2,3,4,5,6-hexahydropyrido(2,3-d)pyridazin-8-yl)methyl)benzamide]
10	O=C(NCC(=O)N1CCCCC1)c1cc(Cc2n[nH]c(=O)c3c2NCCC3)ccc1F [Example 487, 2-fluoro-5-((5-oxo-1,2,3,4,5,6-hexahydropyrido(3,2-d)pyridazin-8-yl)methyl)-N-(2-oxo-2-(piperidin-1-yl)ethyl)benzamide]
191	O=C1CCCN1c1cc(-c2n[nH]c(=O)c3c2CCCC3)ccc1F [Example 491, 4-(4-fluoro-3-(2-oxopyrrolidin-1-yl)phenyl)-5,6,7,8-tetrahydrophthalazin-1(2H)-one]
1.9	O=C(c1cc(Cc2n[nH]c(=O)c3c2CCCC3)ccc1F)N1CCN(C(=O)N2CCCCC2)CC1 [Example 495, 4-(4-fluoro-3-{[4-(piperidin-1-ylcarbonyl)piperazin-1-yl]carbonyl}benzyl)-5,6,7,8-tetrahydrophthalazin-1(2H)-one]
2.7	NC(=O)C1CCN(C(=O)c2cc(Cc3n[nH]c(=O)c4c3CCCC4)ccc2F)CC1 [Example 498, 1-{2-fluoro-5-[(4-oxo-3,4,5,6,7,8-hexahydrophthalazin-1-yl)methyl]benzoyl}piperidine-4-carboxamide]
3	CN1CCCN(C(=O)c2cc(Cc3n[nH]c(=O)c4c3NCCC4)ccc2F)CC1 [Example 509, 8-{4-fluoro-3-[(4-methyl-1,4-diazepan-1-yl)carbonyl]benzyl}-2,3,4,6-tetrahydropyrido[2,3-d]pyridazin-5(1H)-one]
3	O=C(c1cc(Cc2n[nH]c(=O)c3c2CCCC3)ccc1F)N1CCN(c2ccccc2)CC1 [Example 515, 4-{4-fluoro-3-[(4-phenylpiperazin-1-yl)carbonyl]benzyl}-5,6,7,8-tetrahydrophthalazin-1(2H)-one]
5	O=C(c1cc(Cc2n[nH]c(=O)c3c2CCCC3)ccc1F)N1CCN(c2ccccc2Cl)CC1 [Example 517, 4-(3-{[4-(2-chlorophenyl)piperazin-1-yl]carbonyl}-4-fluorobenzyl)-5,6,7,8-tetrahydrophthalazin-1(2H)-one]
5	NC(=O)C1CCCN(C(=O)c2cc(Cc3n[nH]c(=O)c4c3NCCC4)ccc2F)C1 (stereo not drawn) [Example 519, 1-{2-fluoro-5-[(5-oxo-1,2,3,4,5,6-hexahydropyrido[2,3-d]pyridazin-8-yl)methyl]benzoyl}piperidine-3-carboxamide]
13	O=C(c1cc(Cc2n[nH]c(=O)c3c2CCCC3)ccc1F)N1CCN(c2ccccc2F)CC1 [Example 523, 4-(4-fluoro-3-{[4-(2-fluorophenyl)piperazin-1-yl]carbonyl}benzyl)-5,6,7,8-tetrahydrophthalazin-1(2H)-one]
